Measurements taken from ChEMBL document CHEMBL3046898, “Synthesis and characterization of flurbiprofen hydrazide derivatives as potential anti-HCV, anticancer and antimicrobial agents” (2013).
Active and inactive are the calls of the source. The rule behind the calls is not given here.

Assays:
Staphylococcus aureus [1] = experiment: Antibacterial activity against Staphylococcus aureus at 10 mg/ml after 24 hrs by disc diffusion method; type: functional
HCC 2998 = experiment: Cytotoxicity against human HCC2998 assessed as cell growth at 10 uM after 48 hrs by SRB assay; type: functional; settings: HCC 2998, 48 h, read-out: Activity
SR = experiment: Cytotoxicity against human SR assessed as cell growth at 10 uM after 48 hrs by SRB assay; type: functional; settings: read-out: Activity
Candida tropicalis = experiment: Antifungal activity against Candida tropicalis at 10 mg/ml after 48 hrs by disc diffusion method; type: functional, organism-based
OVCAR-3 = experiment: Cytotoxicity against human OVCAR3 assessed as cell growth at 10 uM after 48 hrs by SRB assay; type: functional; settings: OVCAR-3, 48 h, read-out: Activity
[2] = Cytotoxicity against human NCI-ADR-RES assessed as cell growth at 10 uM after 48 hrs by SRB assay; type: functional; settings: read-out: Activity
ACHN = experiment: Cytotoxicity against human ACHN assessed as cell growth at 10 uM after 48 hrs by SRB assay; type: functional; settings: read-out: Activity
Micrococcus lylae = experiment: Antibacterial activity against Micrococcus lylae at 10 mg/ml after 24 hrs by disc diffusion method; type: functional, organism-based
HL-60(TB) = experiment: Cytotoxicity against human HL-60(TB) assessed as cell growth at 10 uM after 48 hrs by SRB assay; type: functional; settings: HL-60, 48 h, read-out: Activity
A498 = experiment: Cytotoxicity against human A498 assessed as cell growth at 10 uM after 48 hrs by SRB assay; type: functional; settings: A498, 48 h, read-out: Activity
MCF7 = experiment: Cytotoxicity against human MCF7 assessed as cell growth at 10 uM after 48 hrs by SRB assay; type: functional; settings: MCF7, 48 h, read-out: Activity
Nakaseomyces glabratus = experiment: Antifungal activity against Candida glabrata at 10 mg/ml after 48 hrs by disc diffusion method; type: functional, organism-based
COLO 205 = experiment: Cytotoxicity against human COLO205 assessed as cell growth at 10 uM after 48 hrs by SRB assay; type: functional; settings: COLO 205, 48 h, read-out: Activity
MOLT-4 = experiment: Cytotoxicity against human MOLT4 assessed as cell growth at 10 uM after 48 hrs by SRB assay; type: functional; settings: MOLT-4, 48 h, read-out: Activity
CCRF-CEM = experiment: Cytotoxicity against human CCRF-CEM assessed as cell growth at 10 uM after 48 hrs by SRB assay; type: functional; settings: read-out: Activity
Klebsiella aerogenes = experiment: Antibacterial activity against Enterobacter aerogenes at 6.25 to 200 ug/ml after 24 hrs by microwell dilution method; type: functional, organism-based
OVCAR-5 = experiment: Cytotoxicity against human OVCAR5 assessed as cell growth at 10 uM after 48 hrs by SRB assay; type: functional; settings: OVCAR-5, 48 h, read-out: Activity
SF-295 = experiment: Cytotoxicity against human SF295 assessed as cell growth at 10 uM after 48 hrs by SRB assay; type: functional; settings: SF-295, 48 h, read-out: Activity
Pichia membranifaciens = experiment: Antifungal activity against Pichia membranifaciens at 10 mg/ml after 48 hrs by disc diffusion method; type: functional, organism-based
Candida albicans = experiment: Antifungal activity against Candida albicans at 10 mg/ml after 48 hrs by disc diffusion method; type: functional, organism-based
SNB-19 = experiment: Cytotoxicity against human SNB19 assessed as cell growth at 10 uM after 48 hrs by SRB assay; type: functional; settings: SNB-19, 48 h, read-out: Activity
Micrococcus luteus [3] = experiment: Antibacterial activity against Micrococcus luteus at 10 mg/ml after 24 hrs by disc diffusion method; type: functional, organism-based
UO-31 = experiment: Cytotoxicity against human UO31 assessed as cell growth at 10 uM after 48 hrs by SRB assay; type: functional; settings: UO-31, 48 h, read-out: Activity
IGROV-1 = experiment: Cytotoxicity against human IGROV1 assessed as cell growth at 10 uM after 48 hrs by SRB assay; type: functional; settings: IGROV-1, 48 h, read-out: Activity
M14 = experiment: Cytotoxicity against human M14 assessed as cell growth at 10 uM after 48 hrs by SRB assay; type: functional; settings: M14, 48 h, read-out: Activity
Candida parapsilosis = experiment: Antifungal activity against Candida parapsilosis at 10 mg/ml after 48 hrs by disc diffusion method; type: functional, organism-based
TK-10 = experiment: Cytotoxicity against human TK10 assessed as cell growth at 10 uM after 48 hrs by SRB assay; type: functional; settings: TK-10, 48 h, read-out: Activity
Pseudomonas aeruginosa = experiment: Antibacterial activity against Pseudomonas aeruginosa at 6.25 to 200 ug/ml after 24 hrs by microwell dilution method; type: functional, organism-based
SN12C = experiment: Cytotoxicity against human SN12C assessed as cell growth at 10 uM after 48 hrs by SRB assay; type: functional; settings: read-out: Activity
NCI-H460 = experiment: Cytotoxicity against human NCI-H460 assessed as cell growth at 10 uM after 48 hrs by SRB assay; type: functional; settings: NCI-H460, 48 h, read-out: Activity
NCI-H23 = experiment: Cytotoxicity against human NCI-H23 assessed as cell growth at 10 uM after 48 hrs by SRB assay; type: functional; settings: NCI-H23, 48 h, read-out: Activity
Staphylococcus aureus [4] = experiment: Antibacterial activity against Staphylococcus aureus at 6.25 to 200 ug/ml after 24 hrs by microwell dilution assay; type: functional, organism-based
OVCAR-4 = experiment: Cytotoxicity against human OVCAR4 assessed as cell growth at 10 uM after 48 hrs by SRB assay; type: functional; settings: OVCAR-4, 48 h, read-out: Activity
RPMI-8226 = experiment: Cytotoxicity against human RPMI8226 assessed as cell growth at 10 uM after 48 hrs by SRB assay; type: functional; settings: RPMI-8226, 48 h, read-out: Activity
Micrococcus luteus [5] = experiment: Antibacterial activity against Micrococcus luteus at 6.25 to 200 ug/ml after 24 hrs by microwell dilution method; type: functional, organism-based
UACC-62 = experiment: Cytotoxicity against human UACC62 assessed as cell growth at 10 uM after 48 hrs by SRB assay; type: functional; settings: UACC-62, 48 h, read-out: Activity
KM12 = experiment: Cytotoxicity against human KM12 assessed as cell growth at 10 uM after 48 hrs by SRB assay; type: functional; settings: KM12, 48 h, read-out: Activity
OVCAR-8 = experiment: Cytotoxicity against human OVCAR8 assessed as cell growth at 10 uM after 48 hrs by SRB assay; type: functional; settings: OVCAR-8, 48 h, read-out: Activity
PC-3 = experiment: Cytotoxicity against human PC3 assessed as cell growth at 10 uM after 48 hrs by SRB assay; type: functional; settings: PC-3, 48 h, read-out: Activity
SK-MEL-5 = experiment: Cytotoxicity against human SK-MEL-5 assessed as cell growth at 10 uM after 48 hrs by SRB assay; type: functional; settings: SK-MEL-5, 48 h, read-out: Activity
Photorhabdus luminescens = experiment: Antibacterial activity against Photorhabdus luminescens at 6.25 to 200 ug/ml after 24 hrs by microwell dilution method; type: functional, organism-based
DU-145 = experiment: Cytotoxicity against human DU145 assessed as cell growth at 10 uM after 48 hrs by SRB assay; type: functional; settings: DU-145, 48 h, read-out: Activity

## CC(C(=O)NN1C(=O)CSC1c1ccc(C(F)(F)F)cc1)c1ccc(-c2ccccc2)c(F)c1 (configuration not stated)
Staphylococcus aureus [1]
  Activity: inactive
HCC 2998
  growth at 10 µM: 155%
SR
  growth at 10 µM: 20.8%
Candida tropicalis
  Activity: inactive
OVCAR-3
  growth at 10 µM: 64.3%
[2]
  growth at 10 µM: 86.5%
ACHN
  growth at 10 µM: 59.6%
Micrococcus lylae
  Activity: inactive
HL-60(TB)
  growth at 10 µM: 36.9%
A498
  growth at 10 µM: 56.8%
MCF7
  growth at 10 µM: 43%
Nakaseomyces glabratus
  Activity: inactive
COLO 205
  growth at 10 µM: 108%
MOLT-4
  growth at 10 µM: 43.5%
CCRF-CEM
  growth at 10 µM: 74.7%
Klebsiella aerogenes
  Activity: inactive
OVCAR-5
  growth at 10 µM: 105%
SF-295
  growth at 10 µM: 58.4%
Pichia membranifaciens
  Activity: inactive
Candida albicans
  Activity: inactive
SNB-19
  growth at 10 µM: 54.7%
Micrococcus luteus [3]
  Activity: inactive
UO-31
  growth at 10 µM: 58.8%
IGROV-1
  growth at 10 µM: 75.5%
M14
  growth at 10 µM: 54.5%
Candida parapsilosis
  Activity: inactive
TK-10
  growth at 10 µM: 99.5%
Pseudomonas aeruginosa
  Activity: inactive
SN12C
  growth at 10 µM: 72.3%
NCI-H460
  growth at 10 µM: 40.5%
NCI-H23
  growth at 10 µM: 90.4%
Staphylococcus aureus [4]
  Activity: inactive
OVCAR-4
  growth at 10 µM: 58.6%
RPMI-8226
  growth at 10 µM: 43.3%
Micrococcus luteus [5]
  Activity: inactive
UACC-62
  growth at 10 µM: 50.9%
KM12
  growth at 10 µM: 46.2%
OVCAR-8
  growth at 10 µM: 86.5%
PC-3
  growth at 10 µM: 37.5%
SK-MEL-5
  growth at 10 µM: 81.8%
Photorhabdus luminescens
  Activity: inactive
DU-145
  growth at 10 µM: 81.5%
